Results taken from ChEMBL document CHEMBL3301361, “Experimental in vitro DMPK and physicochemical data on a set of publicly disclosed compounds”.
In brackets after ≈: the same amount, converted by molar mass. Where a name gives a salt, the structure may show the parent alone.

Assays:
[1] = in vitro; conditions: human, plasma
[2] = physchem; conditions: octan-1-ol/water
[3] = in vitro; conditions: SD, HW or BN, rat, plasma
[4] = physchem; conditions: pH 7.4 buffer

Row | SMILES | fraction unbound at 5 h ([1]; PPB) | logD ([2]; pH 7.4, LogD7.4) | fraction unbound at 5 h [3] | solubility thermodynamic [4] | fraction unbound at 5 h [1] | logD ([2]; pH 7.4)
1 | N#C[C@@]1(NC(=O)[C@@H](N)Cc2cccs2)C[C@@H]1c1ccccc1 | 0.46 | 1.3 | 0.344 | – | – | –
2 | NC(=O)c1cc(C(N)=O)n(-c2cccc(-c3cc(C(F)(F)F)ccc3C(F)(F)F)c2)n1 | 0.0328 | 3.4 | 0.0568 | – | – | –
3 | CCN(CC)S(=O)(=O)c1ccc(-c2cc(C(F)(F)F)ccc2OCC(=O)O)cc1 | 0.0122 | 0.67 | 0.0179 | – | – | –
4 | COC[C@@H](O)Cn1c(=O)cnn(-c2ccc(Cl)c(C(=O)NCC3(O)CCCCCC3)c2)c1=O | 0.586 | 1.44 | 0.608 | – | – | –
5 | CC(C)(C)OC(=O)NC[C@H]1CC[C@H](CNC(=O)c2cc(-c3ccccc3)nc3ccccc23)CC1 | 0.0008 | – | 0.005 | – | – | –
6 | CCn1nc(C)c(C(=O)N[C@@H](C)C(C)(C)C)c1NS(=O)(=O)c1ccc(C)cc1 | 0.0163 | 0.95 | 0.0477 | – | – | –
7 | COc1ccccc1CN(C(C)=O)c1cnccc1Oc1ccccc1 | 0.069 | 3 | 0.101 | – | – | –
8 | COc1cc(C)c(S(=O)(=O)N(C)CCOCC(=O)N2CCC(C3CCN(C)CC3)CC2)c(C)c1 | 0.483 | 0.3 | 0.511 | – | – | –
9 | O=C(NCc1ccc(OC(F)(F)F)cc1)C1c2ccccc2C(=O)N1C1CCOCC1 (stereo unspecified) | 0.0948 | – | 0.132 | 83.2 µM (≈ 36.1 µg/mL) | – | –
10 | Cc1nc(C)c(-c2ccc([C@H]3CC[C@H](CC(N)=O)CC3)cc2)nc1C(N)=O | 0.129 | 2.7 | 0.0556 | – | – | –
11 | C[C@@H]1CN(c2ccc3c(n2)NC(=O)CO3)[C@H](c2ccccc2)CO1 | 0.0633 | 2.75 | 0.0928 | – | – | –
12 | Cc1ccc(Sc2ccccc2CN(C)C)c(N)c1 | 0.11 | 2.6 | 0.0928 | – | – | –
13 | COc1ccccc1O[C@@H](c1ccccc1)[C@@H]1CNCCO1 | 0.309 | 0.9 | 0.768 | – | – | –
14 | CC(C)N1C(=O)[C@H](NC(=O)[C@@H](Cc2ccccc2OC(F)(F)F)NC(=O)OC(C)(C)C)CCc2ccccc21 | 0.003 | – | 0.003 | 5 µM (≈ 2.75 µg/mL) | – | –
15 | CCN1CCC[C@H]1CNC(=O)c1cc(Br)cc(OC)c1OC | 0.54 | 1.2 | 0.701 | – | – | –
16 | C[C@H]([C@H](O)c1ccc(O)cc1)N1CCC(O)(c2ccccc2)CC1 | 0.681 | 0.91 | 0.608 | – | – | –
17 | CC(C)Oc1cc(Nc2nc(N[C@@H](C)c3ccc(F)cn3)nc(OC(CO)CO)c2Cl)n[nH]1 | 0.176 | 2.77 | 0.173 | – | – | –
18 | Cc1ccccc1CN1CCC(N2CCC(n3c(=O)[nH]c4ccccc43)CC2)CC1 | – | – | 0.299 | – | 0.355 | 2.68
19 | Cc1cc(Oc2ncc(C(F)(F)F)cc2Cl)ccc1CC1SC(=O)NC1=O (stereo unspecified) | 0.0006 | – | 0.0021 | – | – | –
20 | Clc1ccc2c(c1)C(N1CCNCC1)=Nc1ccccc1O2 [AMOXAPINE] | 0.11 | 2.28 | 0.101 | – | – | –
21 | O=S(=O)(N[C@H](CO)C(C(F)(F)F)C(F)(F)F)c1ccc(Cl)s1 [BEGACESTAT] | 0.0909 | – | 0.11 | – | – | –
22 | CCCCc1nc(Cl)c(C(=O)O)n1Cc1ccc(-c2ccccc2-c2nn[nH]n2)cc1 [CARBOXYLIC ACID METABOLITE] | 0.0049 | – | 0.0022 | – | – | –
23 | CCOC(=O)Nc1ccc(NCc2ccc(F)cc2)cc1N [EZOGABINE] | – | – | 0.201 | – | 0.139 | –

Row | SMILES | fraction unbound at 5 h ([1]; PPB) | logD ([2]; pH 7.4, LogD7.4) | fraction unbound at 5 h [3] | solubility thermodynamic [4] | fraction unbound at 5 h [1] | logD ([2]; pH 7.4)
24 | OCCN1CCN(CCCN2c3ccccc3Sc3ccc(C(F)(F)F)cc32)CC1 [FLUPHENAZINE] | – | – | 0.0119 | – | 0.0119 | 3.8
25 | CCOC(=O)Nc1ccc(NCc2ccc(F)cc2)nc1N [FLUPIRTINE] | 0.16 | 2.22 | 0.22 | – | – | –
26 | COCCCC/C(=N\OCCN)c1ccc(C(F)(F)F)cc1 [FLUVOXAMINE MALEATE] | 0.266 | – | 0.224 | – | – | –
27 | C[N+](C)(Cc1ccc(NC(=O)c2ccc(Cl)c(Cl)c2)cc1)C1CCOCC1 [JNJ-17166864 CATION] | 0.179 | – | 0.387 | – | – | –
28 | CNC1(c2ccccc2Cl)CCCCC1=O (stereo unspecified) [KETAMINE] | – | – | 0.552 | – | 0.58 | –
29 | CC(C)NC[C@H](O)COc1cccc2ccccc12 [LEVOPROPRANOLOL] | – | – | 0.204 | – | 0.139 | –
30 | Cc1c(F)cc(C(=O)NC2CC2)cc1-c1ccc(C(=O)NCC(C)(C)C)cn1 [LOSMAPIMOD] | 0.119 | – | 0.0818 | – | – | –
31 | CNCCCC12CCC(c3ccccc31)c1ccccc12 [MAPROTILINE] | 0.126 | 0.89 | 0.0784 | – | – | –
32 | Cn1cc[nH]c1=S [METHIMAZOLE] | 0.81 | -0.42 | 0.814 | – | – | –
33 | O=C(O)c1cccnc1 [NIACIN] | 0.552 | – | 0.546 | – | – | –
34 | Cc1cc2c(s1)Nc1ccccc1N=C2N1CCN(C)CC1 [OLANZAPINE] | – | – | 0.124 | – | 0.107 | 2.19
35 | Fc1ccc([C@@H]2CCNC[C@H]2COc2ccc3c(c2)OCO3)cc1 [PAROXETINE] | 0.101 | 1.78 | 0.0532 | – | – | –
36 | CNc1ccc(-c2nc3ccc(O)cc3s2)cc1 [PITTSBURGH COMPOUND B UNLABELLED] | 0.0111 | – | 0.0183 | – | – | –
37 | O=C(O)c1c(O)c(Cc2ccc(Cl)cc2)nc2c3c(ccc12)CCCC3 [PSI-697] | 0.0007 | – | 0.0014 | – | – | –
38 | CCc1nc(N)nc(N)c1-c1ccc(Cl)cc1 [PYRIMETHAMINE] | 0.0736 | 2.31 | 0.069 | – | – | –
39 | CCN1CCC[C@H]1CNC(=O)c1c(O)c(Cl)cc(Cl)c1OC [RACLOPRIDE] | 0.11 | – | 0.557 | – | – | –
40 | COc1ccc(C2CNC(=O)C2)cc1OC1CCCC1 (stereo unspecified) [ROLIPRAM] | 0.173 | – | 0.329 | – | – | –
41 | CN(C)CCOc1cc(NS(=O)(=O)c2c(Cl)cc(C(F)(F)F)cc2Cl)ccc1Cl [SB611812] | 0.0029 | 2.99 | 0.0024 | – | – | –
42 | CN1CCc2cc(Cl)c(O)cc2[C@@H](c2ccccc2)C1 [SCH-23390] | 0.0801 | 2.5 | 0.17 | – | – | –
43 | CN[C@H]1CC[C@@H](c2ccc(Cl)c(Cl)c2)c2ccccc21 [SERTRALINE] | 0.0146 | 3.15 | 0.02 | – | – | –
44 | Cc1ccsc1C(=CCCN1CCC[C@@H](C(=O)O)C1)c1sccc1C [TIAGABINE] | 0.051 | 1.49 | 0.0836 | – | – | –
45 | O=C(CC(c1ccccc1)c1ccccc1)N1CCN(C(c2ccccc2)c2ccccc2)CC1 [Z160] | 0.001 | – | 0.5 | – | – | –
46 | O=C1Cc2cc(CCN3CCN(c4nsc5ccccc45)CC3)c(Cl)cc2N1 [ZIPRASIDONE] | 0.001 | – | 0.003 | – | – | –
